Article PMC9376946, “Peptide-RNA Coacervates as a Cradle for the Evolution of Folded Domains” (Journal of the American Chemical Society, 2022)

How the values were obtained:
polyU [1] = assay: Coacervate (droplet) formation with polyU, optical microscopy; type: physicochemical
Description: Optical microscopy images of phase-separated samples were taken at the de Picciotto Cancer Cell Observatory Life Sciences Core Facilities (Weizmann Institute of Science) using a 100× objective (oil immersion) on a Leica DMI8 microscope with differential interface contrast. We used 1–2 μL of the sample to make a small drop in an imaging chamber produced by attaching a coverslip to a clean glass slide using a thin strip of double-sided tape (AJ Sign World). Images were processed using the software package Fiji (NIH).
Lyophilized, spin-labeled peptides were dissolved in Milli-Q water and centrifuged at 4000 rpm for 10 min to remove insoluble aggregates. The soluble fractions were used to prepare stock solutions of 250–500 μM peptide. Labeled peptide concentrations were determined by comparing the area under the curve of the EPR signal against that of standard solutions of 10–285 μM TEMPO. For the EPR measurements in D2O, 200 μL of the stock solution was lyophilized and re-dissolved in D2O. The concentration of the unlabeled peptide stock solutions was determined using the bicinchoninic acid assay (Thermo Fisher Scientific) and ranged from 0.8 to 1.2 mM peptide. A stock solution of 500 mM MES, pH 5.6 was used to adjust all samples to a final concentration of 50 mM MES, pH 5.6. Aliquots of 10 mg/mL polyuridylic acid (polyU; Sigma Aldrich) were prepared in Milli-Q water and diluted as necessary. For CW-EPR measurements, a quartz capillary of 0.6 mm i.d. and 0.84 mm o.d. was filled with 7–8 μL of the sample and sealed with Critoseal (Fisherbrand, Fisher Scientific) at one end. A single capillary was placed in an X-band EPR tube of 2 mm i.d. and 2.4 mm o.d. for measurements, except for spin concentration below 50 μM, where two capillaries were used.
Each sample was freshly prepared and the time to collect […] CW-EPR data was 30–40 min.

polyU [2] = settings: ref [17]; cited from earlier work
Source text: The basis for the work presented here is the construct Precursor-Arg (PA).[17] PA consists of a single helix-hairpin-helix (HhH) motif and is constructed from an alphabet of only 10 amino acid types. The sequence of PA (Table 1) is biased specifically for those amino acids that were thought to be present on the early earth[35] and is the result of an ancestor sequence reconstruction of the (HhH)2-Fold protein family followed by an experimental deconstruction.[17] PA has two positively charged patches—located at the N-terminus of the first α-helix (residues 1–4, RIRR) and on the second α-helix ... || Using the ColabFold implementation of AlphaFold2,[33] a model of a putative PA dimer was predicted (Figure 1A). […] The dimerization potential of PA was further confirmed by MD simulations (Figure S6). […] This option relies on the dimer having conformations where positive and negative charges are separated, allowing for efficient bidentate binding to the polyU.

[3] = earlier study, trifluoroethanol titration followed by CD; ref [17]; cited from earlier work

Sequence: RVRRSEIPLGIELEAGTLRLARRPEIRVA [SA]
- coacervate formation with polyU (polyU [1]; concentrations not given): did not form coacervates with polyU
- coacervate formation with polyU (polyU [1]; unlabeled peptide, 1 mg/mL polyU, aggregation also previously reported, ref [17]): did not form coacervates but rather aggregates
- coacervate formation or precipitation with polyU (earlier study) (polyU [2]): precipitates with polyU rather than forms coacervates
- α-helical propensity [3]: lower α-helical propensity than PA
